{"source": "patent US8940510B2", "about": "“Spray dried microbes and methods of preparation and use” (University of Iowa Research Foundation, priority 2007, dated 2015)", "key": {"glycolate oxidase [1]": {"target": "T1, glycolate oxidase (Spinacia oleracea, UniProt P05414)", "T1 construct": "expressed in transfected cells; host or cells: Pichia pastoris, single recombinant (NRRL Y-21001) or double recombinant, spray-dried and/or BAC-permeabilised whole cells", "T1 sequence (P05414 1-369)": "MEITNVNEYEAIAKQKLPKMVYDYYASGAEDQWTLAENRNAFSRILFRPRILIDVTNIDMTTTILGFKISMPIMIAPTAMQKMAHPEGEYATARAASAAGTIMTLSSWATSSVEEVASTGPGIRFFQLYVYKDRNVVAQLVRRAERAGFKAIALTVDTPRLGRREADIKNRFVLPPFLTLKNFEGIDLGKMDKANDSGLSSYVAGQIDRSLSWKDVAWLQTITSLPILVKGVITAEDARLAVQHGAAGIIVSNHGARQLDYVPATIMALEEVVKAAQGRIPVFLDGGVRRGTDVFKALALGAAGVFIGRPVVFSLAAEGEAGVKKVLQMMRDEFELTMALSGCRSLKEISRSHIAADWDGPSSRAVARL", "experiment": "Glycolate oxidase (DCIP) assay on Pichia pastoris whole-cell biocatalyst", "format": "biochemical, spinach", "conditions": "racemic substrate, lactic acid is 100%; for Relative GO activity, Permeabilized: permeabilized cells; for Relative GO activity, Spray-dried: spray-dried cells", "protocol": "Glycolate Oxidase Assay • 1. Weigh approximately 40 mg spray-dried cells (record exact weight) into a 10 mL centrifuge tube. • 2. Add 8.0 mL of DCIP assay solution (0.12 mM 2,6-dichloroindophenol and 80 mM Tris, pH 8.3). A DCIP solution that is stored at 4° C. may be used for up to 2 weeks. • 3. Mix to suspend cells, then remove 50 μL of suspension (about 0.25 mg dry cells) and place in 3.0 mL quartz cuvette with flea stirrer. Add 2.0 mL of DCIP assay solution. Cap with septum and bubble with nitrogen for 3 minutes. • 4. […]\nIn initial work (in the absence of spray-drying), after fermentation, cells were recovered by solid/liquid separation, and benzalkonium chloride (BAC) detergent was used to permeabilize cells for the enzyme reaction. […] Thus, another experiment (see below) compared spray-dried cells to several other methods of cell preparation: a) not spray-dried and not BAC treated, b) not spray-dried and treated with BAC, and c) spray-dried and treated with BAC. The spray-dried cells were treated with BAC after spray-drying to determine if spray-drying completely permeabilized the cells.\nDetergent Cell Permeabilization • 1. Prepare mixture of 10 weight % cells/volume 50 mM phosphate buffer (pH 7.0) at room temperature. Add 0.1% (w/v) benzalkonium chloride. • 2. Stir or mix slowly for 60 minutes at room temperature, 25° C. • 3. Centrifuge (9950×g for 10 minutes at 5° C.), decant, and re-suspend cells three times (10% w/v) in 50 mM phosphate buffer (pH 7.0) at 5° C., centrifuge, decant. • 4. Permeabilized cells may be used immediately or stored up to one year at −80° C. prior to use."}, "glycolate oxidase [2]": {"tested_on": "glycolate oxidase", "conditions": "100 mM; enzyme extracted from tobacco leaves; cited from earlier work"}}, "data": [{"molecule": "CC(C)C(O)C(=O)O", "note": "(racemic) [2-Hydroxy-3-methylbutyric acid]", "values": [{"measurement": "Relative GO activity, Permeabilized", "setting": "glycolate oxidase [1]", "value": 1, "unit": "%"}, {"measurement": "Relative GO activity, Spray-dried", "setting": "glycolate oxidase [1]", "value": 2, "unit": "%"}]}, {"molecule": "CCC(O)C(=O)O", "note": "(racemic) [2-Hydroxybutyric acid]", "values": [{"measurement": "Relative GO activity, Permeabilized", "setting": "glycolate oxidase [1]", "value": 91, "unit": "%"}, {"measurement": "Relative GO activity, Spray-dried", "setting": "glycolate oxidase [1]", "value": 129, "unit": "%"}]}, {"molecule": "CCCCCCCCC(O)C(=O)O", "note": "(racemic) [2-Hydroxydecanoic acid]", "values": [{"measurement": "Relative GO activity, Permeabilized", "setting": "glycolate oxidase [1]", "value": 40, "unit": "%"}, {"measurement": "Relative GO activity, Spray-dried", "setting": "glycolate oxidase [1]", "value": 49, "unit": "%"}]}, {"molecule": "O=C(O)C(O)Cc1c[nH]c2ccccc12", "note": "(racemic) [3-Indolelactic acid]", "values": [{"measurement": "Relative GO activity, Permeabilized", "setting": "glycolate oxidase [1]", "value": 18, "unit": "%"}, {"measurement": "Relative GO activity, Spray-dried", "setting": "glycolate oxidase [1]", "value": 26, "unit": "%"}]}, {"molecule": "O=C(O)C(O)Cc1ccccc1", "note": "(racemic) [3-Phenyllactic acid]", "values": [{"measurement": "Relative GO activity, Permeabilized", "setting": "glycolate oxidase [1]", "value": 25, "unit": "%"}, {"measurement": "Relative GO activity, Spray-dried", "setting": "glycolate oxidase [1]", "value": 37, "unit": "%"}]}, {"molecule": "CC(O)C(=O)O", "note": "(racemic) [Lactic acid]", "values": [{"measurement": "Relative GO activity, Permeabilized", "setting": "glycolate oxidase [1]", "value": 100, "unit": "%"}, {"measurement": "Relative GO activity, Spray-dried", "setting": "glycolate oxidase [1]", "value": 100, "unit": "%"}]}, {"molecule": "O=C(O)C(O)c1ccccc1", "note": "(racemic) [Mandelic acid]", "values": [{"measurement": "Relative GO activity, Permeabilized", "setting": "glycolate oxidase [1]", "value": 3, "unit": "%"}, {"measurement": "Relative GO activity, Spray-dried", "setting": "glycolate oxidase [1]", "value": 3, "unit": "%"}]}, {"molecule": "O=C(O)C(O)CCl", "note": "(racemic) [β-Chlorolactic acid]", "values": [{"measurement": "Relative GO activity, Permeabilized", "setting": "glycolate oxidase [1]", "value": 100, "unit": "%"}, {"measurement": "Relative GO activity, Spray-dried", "setting": "glycolate oxidase [1]", "value": 121, "unit": "%"}]}, {"molecule": "O=C(O)CO", "note": "[Glycolic acid]", "values": [{"measurement": "Relative GO activity, Permeabilized", "setting": "glycolate oxidase [1]", "value": 90, "unit": "%"}, {"measurement": "Relative GO activity, Spray-dried", "setting": "glycolate oxidase [1]", "value": 94, "unit": "%"}]}, {"molecule": "O=C(O)C(=O)O", "note": "[Oxalic acid]", "values": [{"measurement": "Effect on the catalytic action of glycolate oxidase", "setting": "glycolate oxidase [2]", "value": "inhibit"}]}, {"molecule": "O=C(O)C(O)Cc1ccc(O)cc1", "note": "(centres unmarked) [p-Hydroxyphenyllactic acid]", "values": [{"measurement": "Relative GO activity, Permeabilized", "setting": "glycolate oxidase [1]", "value": 26, "unit": "%"}, {"measurement": "Relative GO activity, Spray-dried", "setting": "glycolate oxidase [1]", "value": 38, "unit": "%"}]}, {"molecule": "Trifluorolactic acid", "values": [{"measurement": "Relative GO activity, Permeabilized", "setting": "glycolate oxidase [1]", "value": 11, "unit": "%"}, {"measurement": "Relative GO activity, Spray-dried", "setting": "glycolate oxidase [1]", "value": 2, "unit": "%"}]}]}
